# Measurements as given in patent US20080242542A1, “INDANILINE DYE, THERMAL TRANSFER RECORDING INK SHEET, THERMAL TRANSFER RECORDING METHOD, COLOR TONER, INKJET INK, AND COLOR FILTER” (FUJIFILM Corporation, priority 2007, published 2008).
# Assay: Absorption spectrometry in ethyl acetate solution
# Assay type: physicochemical
# Conditions: 1×10^−6 mol/L, optical path length 10 mm
# Description: The thus-obtained compounds (1) to (4) were analyzed for absorption spectrometry in an ethyl acetate solution (concentration: 1×10^−6 mol/L, optical path length; 10 mm). The data of ^1H NMR spectrometry (in heavy chloroform) and MS spectrometry of the obtained compounds (1) to (4) are shown in Table 1 below.
row,SMILES,Maximum Absorption Wavelength [nm]
1,CCC(=O)NC1=CC(=Nc2ccc(N(CC)CC)cc2)C(C)=C(Cl)C1=O [Compound (1)],626

# Assay: Light fastness of recorded image under Xe light
# Assay type: physicochemical
# Conditions: Xe light (17000 lux) for 7 days; retention of reflection density 1.0
# Description: Next, the recorded samples were exposed to an Xe light (17000 lux) for 7 days, and rested for the light stability (light fastness) of the recorded images. After the exposure, the status A reflection density of the part of each sample having an original status A reflection density of 1.0 before the exposure was measured, and the retention (by percentage) to the reflection density of 1.0 after exposure to that before exposure indicates the image stability. With the retention percentage, the samples were ranked in three, A (from 80% to less than 100%), B (from 60% to less than 80%) , C (less than 60%).
row,SMILES,Light Fastness
1,CCN(CC)c1ccc(N=C2C=C(NC(C)=O)C(=O)C(Cl)=C2C)cc1 [Comparative Dye 1],A (A (from 80% to less than 100%))
2,CCN(CC)c1ccc(N=C2C=C(NC(C)=O)C(=O)C=C2C)c(C)c1 [Comparative Dye 3],B (B (from 60% to less than 80%))
3,CCN(CC)c1ccc(N=C2C=C(NC(C)=O)C(=O)C(Cl)=C2C)c(C)c1 [Comparative Dye 4],A (A (from 80% to less than 100%))
4,CCN(CC)c1ccc(N=C2C=C(NC(=O)c3ccccc3)C(=O)C(Cl)=C2C)c(C)c1 [Comparative Dye 5],A (A (from 80% to less than 100%))
5,CCC(=O)NC1=CC(=Nc2ccc(N(CC)CC)cc2)C(C)=C(Cl)C1=O [Compound (1)],A (A (from 80% to less than 100%))
